The numbers were not newly measured in US6710179B2, “Compounds with analgesic effect” (AstraZeneca Canada Inc., priority 1996, dated 2004), which cites them from elsewhere.

One data set has as its target δ receptor (Homo sapiens, UniProt P41143). The following applies: non-peptidic δ antagonists; review Takemori and Portoghese 1992.
For data set [1] the following is noted: non-peptidic δ antagonists; prior art statement.

Chain of δ receptor (P41143 whole entry): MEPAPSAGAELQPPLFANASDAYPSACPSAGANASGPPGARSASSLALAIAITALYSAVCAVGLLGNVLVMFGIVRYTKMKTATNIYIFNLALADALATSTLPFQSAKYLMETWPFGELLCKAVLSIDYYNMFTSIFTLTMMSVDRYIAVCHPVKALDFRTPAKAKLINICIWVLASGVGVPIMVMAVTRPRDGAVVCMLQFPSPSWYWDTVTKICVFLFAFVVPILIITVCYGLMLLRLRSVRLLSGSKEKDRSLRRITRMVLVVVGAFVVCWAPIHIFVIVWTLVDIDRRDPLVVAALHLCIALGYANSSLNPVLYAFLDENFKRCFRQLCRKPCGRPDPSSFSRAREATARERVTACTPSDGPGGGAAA

Turning to `Oc1ccc2c3c1O[C@H]1c4[nH]c5ccccc5c4C[C@@]4(O)[C@@H](C2)N(CC2CC2)CC[C@]314` [naltrindole], the “selectivity for the δ receptor vs. μ receptor binding” value at δ receptor was less than 10 fold. In addition, in data set [1], the analgesic activity result was “no analgesic activity”.
